Where a SMILES comes first, the peptide text is derived from it.
System: Limosilactobacillus reuteri GOLDGUT-LR99
Experiment: Carbon source utilization and oxidation experiment (AN Biolog micro-pore plate)
Format: cell-based
Conditions: substrate utilization by the strain; for Utilization (Y=OD590−OD750): 37° C. anaerobic culture for 24 hours
Experimental: The AN Biolog micro-pore plate was used for measuring the utilization and oxidation conditions of different carbon sources of Limosilactobacillus reuteri GOLDGUT-LR99, the AN microplate used nutrients and biochemical reagents, and the method included the following steps: 1 mL of Limosilactobacillus reuteri GOLDGUT-LR99 bacterial liquid of the strain to be detected at the end of logarithmic growth was pipetted and centrifuged, then the supernatant was removed, the cells was washed three times with the seed liquid and suspended with 1 mL of the seed liquid, 50 μL of the suspension was taken and diluted in 10 mL of the seed liquid, the diluent was subpacked in a Biolog plate (100 μL/pore) after mixing uniformly, and the Biolog plate with the diluent was placed in 37° C. for anaerobic culture for 24 hours. After the culture was finished, OD590 and OD750 were detected by using microplate reader, the numerical values were recorded, and the utilization conditions of carbohydrate, organic acid and other substances of the Limosilactobacillus reuteri GOLDGUT-LR99 were calculated, wherein the calculation method was as follows: Y=OD590−OD750;

O=C[C@H](O)[C@@H](O)[C@H](O)[C@H](O)COP(=O)(O)O [Glucose-6-phosphate]
Utilization (Y=OD590−OD750): ++ (when Y > 0.1, it is shown that the strain was able to effectively utilize this substance, marked as++)

CCCC(=O)C(=O)O [α-Ketovaleric acid]
Utilization (Y=OD590−OD750): − (when Y < 0.05, it is shown that the strain was not able to utilize this substance, marked as −)

CC(C)[C@@H](C)/C=C/[C@@H](C)[C@H]1CC[C@H]2C3=CC=C4C[C@@H](O)CC[C@]4(C)[C@H]3CC[C@]12C [Ergosterol]
Utilization (Y=OD590−OD750): ++ (when Y > 0.1, it is shown that the strain was able to effectively utilize this substance, marked as++)

O=C(O)CCC(=O)C(=O)O [α-Ketoglutaric acid]
Utilization (Y=OD590−OD750): − (when Y < 0.05, it is shown that the strain was not able to utilize this substance, marked as −)

OC[C@H]1O[C@@H]2O[C@H]3[C@H](O)[C@@H](O)[C@@H](O[C@H]4[C@H](O)[C@@H](O)[C@@H](O[C@H]5[C@H](O)[C@@H](O)[C@@H](O[C@H]6[C@H](O)[C@@H](O)[C@@H](O[C@H]7[C@H](O)[C@@H](O)[C@@H](O[C@H]8[C@H](O)[C@@H](O)[C@@H](O[C@H]1[C@H](O)[C@H]2O)O[C@@H]8CO)O[C@@H]7CO)O[C@@H]6CO)O[C@@H]5CO)O[C@@H]4CO)O[C@@H]3CO [β-Cyclodextrin]
Utilization (Y=OD590−OD750): − (when Y < 0.05, it is shown that the strain was not able to utilize this substance, marked as −)

N[C@@H](CCC(=O)O)C(=O)O [L-Glutamic acid]
Utilization (Y=OD590−OD750): − (when Y < 0.05, it is shown that the strain was not able to utilize this substance, marked as −)

OC[C@H]1O[C@@](CO)(O[C@H]2O[C@H](CO)[C@@H](O)[C@H](O)[C@H]2O)[C@@H](O)[C@@H]1O [Sucrose]
Utilization (Y=OD590−OD750): − (when Y < 0.05, it is shown that the strain was not able to utilize this substance, marked as −)

L-Alanyl-L-M-glutamate
Utilization (Y=OD590−OD750): − (when Y < 0.05, it is shown that the strain was not able to utilize this substance, marked as −)

L-Valine + L-M-Aspartamid acid
Utilization (Y=OD590−OD750): − (when Y < 0.05, it is shown that the strain was not able to utilize this substance, marked as −)

α-Succinic acid
Utilization (Y=OD590−OD750): − (when Y < 0.05, it is shown that the strain was not able to utilize this substance, marked as −)

OC[C@@H](O)[C@@H](O)[C@H](O)[C@@H](O)CO [D-Sorbitol]
Utilization (Y=OD590−OD750): ++ (when Y > 0.1, it is shown that the strain was able to effectively utilize this substance, marked as++)

OC[C@H]1O[C@@H]2O[C@H]3[C@H](O)[C@@H](O)[C@@H](O[C@H]4[C@H](O)[C@@H](O)[C@@H](O[C@H]5[C@H](O)[C@@H](O)[C@@H](O[C@H]6[C@H](O)[C@@H](O)[C@@H](O[C@H]7[C@H](O)[C@@H](O)[C@@H](O[C@H]1[C@H](O)[C@H]2O)O[C@@H]7CO)O[C@@H]6CO)O[C@@H]5CO)O[C@@H]4CO)O[C@@H]3CO [α-Cyclodextrin]
Utilization (Y=OD590−OD750): ++ (when Y > 0.1, it is shown that the strain was able to effectively utilize this substance, marked as++)

OCc1ccccc1O[C@@H]1O[C@H](CO)[C@@H](O)[C@H](O)[C@H]1O [Salicin]
Utilization (Y=OD590−OD750): − (when Y < 0.05, it is shown that the strain was not able to utilize this substance, marked as −)

CC(O)CC(=O)O (stereo not drawn) [β-Hydroxybutyric acid]
Utilization (Y=OD590−OD750): − (when Y < 0.05, it is shown that the strain was not able to utilize this substance, marked as −)

O=CO [Formic acid]
Utilization (Y=OD590−OD750): − (when Y < 0.05, it is shown that the strain was not able to utilize this substance, marked as −)

C[C@H](N)C(=O)N[C@@H](Cc1c[nH]cn1)C(=O)O [L-Alanyl-histidine] (H-Ala-His-OH)
Utilization (Y=OD590−OD750): − (when Y < 0.05, it is shown that the strain was not able to utilize this substance, marked as −)

O=CC(=O)O [Glyoxylic acid]
Utilization (Y=OD590−OD750): + (when 0.1 > Y > 0.05, it is shown that the strain was able to better utilize this substance, marked as +)

CC(O)C(=O)O (racemic) [D,L-Lactic acid]
utilization effect (in words): effectively utilize | Utilization (Y=OD590−OD750): ++ (when Y > 0.1, it is shown that the strain was able to effectively utilize this substance, marked as++)

D-Aminoglucuronate
Utilization (Y=OD590−OD750): ++ (when Y > 0.1, it is shown that the strain was able to effectively utilize this substance, marked as++)

O=P(O)(O)O[C@H]1O[C@H](CO)[C@@H](O)[C@H](O)[C@H]1O [Glucose-1-phosphate]
Utilization (Y=OD590−OD750): + (when 0.1 > Y > 0.05, it is shown that the strain was able to better utilize this substance, marked as +)

OC[C@H]1O[C@H](O)[C@H](O)[C@@H](O)[C@@H]1O [α-D-Glucose]
Utilization (Y=OD590−OD750): − (when Y < 0.05, it is shown that the strain was not able to utilize this substance, marked as −)

L-Asparagine acid
Utilization (Y=OD590−OD750): + (when 0.1 > Y > 0.05, it is shown that the strain was able to better utilize this substance, marked as +)

NCC(=O)N1CCC[C@H]1C(=O)O [Glycylprolline] (H-Gly-Pro-OH)
Utilization (Y=OD590−OD750): − (when Y < 0.05, it is shown that the strain was not able to utilize this substance, marked as −)

CC(=O)O [Ethanoic acid]
Utilization (Y=OD590−OD750): − (when Y < 0.05, it is shown that the strain was not able to utilize this substance, marked as −)

Maltotriose
Utilization (Y=OD590−OD750): ++ (when Y > 0.1, it is shown that the strain was able to effectively utilize this substance, marked as++)

OC[C@H]1O[C@@H](O[C@H]2[C@H](O)[C@@H](O)[C@H](O)O[C@@H]2CO)[C@H](O)[C@@H](O)[C@@H]1O [D-Cellobiose]
Utilization (Y=OD590−OD750): ++ (when Y > 0.1, it is shown that the strain was able to effectively utilize this substance, marked as++)

OC[C@H]1O[C@H](O[C@H]2[C@H](O)[C@@H](O)[C@H](O)O[C@@H]2CO)[C@H](O)[C@@H](O)[C@@H]1O [Maltose]
Utilization (Y=OD590−OD750): − (when Y < 0.05, it is shown that the strain was not able to utilize this substance, marked as −)

CC(=O)N[C@H]1C(O)O[C@H](CO)[C@@H](O)[C@@H]1O (stereo partly drawn) [N-Acetyl-D-glucosamine]
Utilization (Y=OD590−OD750): − (when Y < 0.05, it is shown that the strain was not able to utilize this substance, marked as −)

OC[C@H]1O[C@@](CO)(O[C@H]2O[C@H](CO)[C@@H](O)[C@H](O)[C@H]2O)[C@@H](O[C@H]2O[C@H](CO)[C@@H](O)[C@H](O)[C@H]2O)[C@@H]1O [Melezitose]
Utilization (Y=OD590−OD750): ++ (when Y > 0.1, it is shown that the strain was able to effectively utilize this substance, marked as++)

OC[C@H]1O[C@@H](Oc2ccc(O)cc2)[C@H](O)[C@@H](O)[C@@H]1O [Arbutin]
Utilization (Y=OD590−OD750): − (when Y < 0.05, it is shown that the strain was not able to utilize this substance, marked as −)

Dextrin
Utilization (Y=OD590−OD750): − (when Y < 0.05, it is shown that the strain was not able to utilize this substance, marked as −)

CSCC[C@H](NC(=O)CN)C(=O)O [Glycyl-L-methionine]
Utilization (Y=OD590−OD750): − (when Y < 0.05, it is shown that the strain was not able to utilize this substance, marked as −)

OCC1OC(OC2OC(CO)C(O)C(O)C2O)C(O)C(O)C1O [L-Trehalose]
utilization effect (in words): better utilization effect | Utilization (Y=OD590−OD750): ++ (when Y > 0.1, it is shown that the strain was able to effectively utilize this substance, marked as++)

CC(=O)C(=O)O [Pyruvic acid]
Utilization (Y=OD590−OD750): + (when 0.1 > Y > 0.05, it is shown that the strain was able to better utilize this substance, marked as +)

C[C@H](O)[C@H](O)[C@@H](O)[C@@H](O)C=O [L-Rhamnose]
Utilization (Y=OD590−OD750): ++ (when Y > 0.1, it is shown that the strain was able to effectively utilize this substance, marked as++)

C[C@H](N)C(N)=O [L-Alanineamide]
Utilization (Y=OD590−OD750): ++ (when Y > 0.1, it is shown that the strain was able to effectively utilize this substance, marked as++)

O=P(O)(O)OCC(O)CO (racemic) [D,L-α-Glycerophosphate]
Utilization (Y=OD590−OD750): − (when Y < 0.05, it is shown that the strain was not able to utilize this substance, marked as −)

O=C[C@H](O)[C@@H](O)[C@@H](O)[C@H](O)CO [D-Galactose]
Utilization (Y=OD590−OD750): ++ (when Y > 0.1, it is shown that the strain was able to effectively utilize this substance, marked as++)

COC1OC(CO)C(O)C(O)C1O [α-Methyl-D-galactoside]
Utilization (Y=OD590−OD750): − (when Y < 0.05, it is shown that the strain was not able to utilize this substance, marked as −)

OC[C@H]1O[C@@H](O[C@H]2[C@H](O)[C@@H](O)[C@@H](O)O[C@@H]2CO)[C@H](O)[C@@H](O)[C@H]1O [α-D-Lactose]
Utilization (Y=OD590−OD750): − (when Y < 0.05, it is shown that the strain was not able to utilize this substance, marked as −)

OC[C@H]1O[C@H](OC[C@H]2O[C@H](OC[C@H]3O[C@H](O[C@]4(CO)O[C@H](CO)[C@@H](O)[C@@H]4O)[C@H](O)[C@@H](O)[C@@H]3O)[C@H](O)[C@@H](O)[C@H]2O)[C@H](O)[C@@H](O)[C@H]1O [Stachyose]
Utilization (Y=OD590−OD750): + (when 0.1 > Y > 0.05, it is shown that the strain was able to better utilize this substance, marked as +)

O=C1O[C@H](CO)[C@@H](O)[C@H](O)[C@H]1O [D-Gluconolactone]
Utilization (Y=OD590−OD750): ++ (when Y > 0.1, it is shown that the strain was able to effectively utilize this substance, marked as++)

CC(=O)N[C@H]1[C@@H](O)[C@H](O)[C@@H](CO)O[C@H]1O [N-Acetyl-β-D-mannosamine]
Utilization (Y=OD590−OD750): − (when Y < 0.05, it is shown that the strain was not able to utilize this substance, marked as −)

From patent US20250222044A1, “LIMOSILACTOBACILLUS REUTERI GOLDGUT-LR99 AND APPLICATION THEREOF” (priority 2024, published 2025)
